Test results from patent US12371666B2, “Nucleoside modified mRNA and uses thereof” (BOSTON MEDICAL CENTER CORPORATION, priority 2021, dated 2025).
Where two headings read alike, the source gives them in different places.

Legend:
[1] = b-estradiol treatment of males in APAP liver injury, serum ALT; assay type: in vivo, mouse; settings: IP 0.5 mg/kg in corn oil, 24 hours following APAP injection
[2] = intravenous NAC; cited from earlier work
[3] = tested on: APAP-induced liver injury; assay type: in vivo; settings: for survival: GH 2.5 mg/kg or NAC 1000 mg/kg 8 hours post-APAP
Procedure: Acetaminophen-induced liver injury mouse model.
GH and NAC were both diluted in sterile PBS. GH was diluted to a concentration of 1 mg/mL and given at dosage indicated, subcutaneously with a 0.5 mL insulin syringe. NAC was diluted to a concentration of 50 mg/mL and given at 1000 mg/kg dosage, intraperitoneally with a 1 mL insulin syringe.
The statistical analyses for the graphs were carried out using two-sided student's t test for unpaired comparisons with GraphPad Prism™. The statistical analyses for the Kaplan-Meier survival curves were carried out using the Log-rank Mantel-Cox test with GraphPad Prism. A p value<0.05 was considered significant, ***<0.0001, **<0.001, *<0.05, n.s. or no result=not significant.

[4] = tested on: BEC-driven liver regeneration; test: BEC-driven liver regeneration in zebrafish hepatocyte ablation model Tg(fabp10a:CFP-NTR) with Mtz; assay type: in vivo
Procedure: Experiments on zebrafish: All zebrafish experiments were performed under the approval of the IACUC at the University of Pittsburgh. Embryos and adult fish were raised and maintained under standard laboratory conditions. The following transgenic lines were used: Tg(fabp10a:CFP-NTR)s931, Tg(Tp1:H2B-mCherry)s939, Tg(hs:sflt1)bns80, Tg(Tp1:CreERT2)s959, and Tg(hs:loxP-mCherry-loxP-hVEGFA)mn32.
Hepatocyte ablation using the Tg(fabp10a:CFP-NTR) line: Hepatocyte ablation was performed by treating Tg(fabp10a:CFP-NTR) larvae with 10 mM Mtz in egg water supplemented with 0.2% DMSO and 0.2 mM 1-phenyl-2-thiourea from 3.5 to 5 dpf for 36 hours, as previously described^9.
SU5416 treatment: SU5416 (MedChemExpress, Monmouth Junction, NJ) was used at 1.5 μM.
Heat-shock conditions for zebrafish larvae: Both Tg(hs:sflt1) and Tg(hs:loxP-mCherry-loxP-hVEGFA) larvae were heat-shocked by transferring them into egg water pre-warmed to 38.5° C. and keeping them at this temperature for 20 minutes, as previously described^10.
Whole-mount in situ hybridization and immunostaining in zebrafish: Whole-mount in situ hybridization was performed, as previously described^11, with gc^12 and f5 probes. […]
Quantification of Bhmt+ cell number and Bhmt+ area in the zebrafish liver: For the quantification of Bhmt+ cell number, confocal projection images consisting of 6 optical-section images, with 3-μm interval, were used. Bhmt+ and Tp1:H2B-mCherry+ cells were manually counted; the number of Bhmt/Tp:H2B-mCherry double-positive cells was divided by the number of Tp1:H2B-mCherry+ cells. For the quantification of Bhmt+ liver area, confocal projection images showing Bhmt and fabp10a:CFP-NTR expression were used. Both Bhmt^+ and fabp10a:CFP-NTR+ areas in the liver were calculated by ImageJ and the former area was divided by the latter.
Image acquisition, processing, and statistical analysis of zebrafish data: Zeiss LSM700 confocal and Leica MZ16 microscopes were used to obtain image data. Confocal stacks were analyzed using the Zen 2009 software. […] Quantitative data were shown as mean±standard error of the mean (SEM).

[5] = tested on: Tg(fabp10a:CFP-NTR) larvae; test: Zebrafish NTR/Mtz hepatocyte ablation model of BEC-driven liver regeneration; settings: for size of regenerating livers: 2 μM, treatment from A0h to R24h
Source text: a. […] In the Tg(fabp10a:CFP-NTR)^5931 zebrafish line, bacterial nitroreductase (NTR) is expressed under the hepatocyte-specific fabp10a promoter^2. Since the NTR enzyme converts the non-toxic prodrug, metronidazole (Mtz), into a cytotoxic drug^59, 60 treating the transgenic zebrafish with Mtz specifically ablates hepatocytes. In this model, upon severe hepatocyte loss, BECs first dedifferentiate into LPCs, then re-differentiate into either hepatocytes or BECs, thereby leading to full liver recovery^2.
b. […] Upon targeted chemical screening using the NTR/Mtz model^61, the inventors examined the effect of VEGFR2 inhibition on BEC-driven liver regeneration. The inventors used the Notch reporter line Tg(Tp1:H2B-mCherry)^939 that expresses H2B-mCherry fusion proteins in BECs.
c. […] Given that VEGFR2 functions via at least two major signaling branches, PI3K/AKT and MEK/ERK1/2, the inventors tested which downstream branch controls BEC-driven liver regeneration using their specific inhibitors (LY294002 for PI3K and U0126 for MEK1/2). […] Given the well-known cascade of PI3K-AKT-mTOR, the inventors further examined mTOR activity in the regenerating livers.

[6] = tested on: BEC-driven liver regeneration; settings: earlier chemical screen of the inventors; cited from earlier work
centrilobular necrosis = test: APAP-NSG liver injury model dose test; settings: NSG mice, 24 h after injection
[7] = tested on: APAP-induced liver injury; test: Acetaminophen-induced liver injury in male and female C57BL/6J mice
Procedure: Images from stained sections were visualized and measured at 40× magnification on ImageJ™ (FIJI) using the area measurement tool. 2-3 lobes were measured and averaged per mouse.

liver sex-biased genes = settings: rat GH 25 ng/g BW/hr by minipump, male mice; cited from earlier work

Molecule: C[C@]12CC[C@@H]3c4ccc(O)cc4CC[C@H]3[C@@H]1CC[C@@H]2O [b-estradiol]
- ALT levels [1]: significantly decreased ALT levels

Molecule: CC(=O)N[C@@H](CS)C(=O)O [NAC, N-acetyl cysteine]
- patients with anaphylactoid reaction [2]: up to 18%
- survival ([3]; females): all females survived regardless of the treatment
- necrotic tissue ([3]; females, NAC 1000 mg/kg): did not show the beneficial effect of reducing necrotic tissue
- necrotic areas ([3]; males that survived 24 hours post-APAP, NAC 1000 mg/kg): significantly diminished
- apoptotic TUNEL+ area ([3]; males, 24 hours post-APAP): significantly diminished
- survival ([3]; males, 48 hours post-APAP): all NAC-treated males died by 48 hours post-APAP

Molecule: Cc1cc(C)c(/C=C2\C(=O)Nc3ccccc32)[nH]1 [SU5416]
- LPC-to-hepatocyte differentiation defect by gc and f5 expression ([4]; R24h): This defect was confirmed
- expression of the hepatocyte marker Bhmt ([4]; R24h, SU5416 from A18h to R24h): greatly suppressed the expression of the hepatocyte marker Bhmt
- size of regenerating livers ([4]; SU5416 1.5 μM from A18h to R24h): significantly reduced the size of regenerating livers
- size of regenerating livers [5]: significantly reduced the size of regenerating livers
- expression of Prox1 and Hnf4a in LPCs ([5]; R6h): normal expression of Prox1 and Hnf4a
- pS6 expression in LPCs (mTORC1 activation) ([5]; R6h regenerating livers): absent
- expression of fabp10a:CFP-NTR ([5]; R24h): very weak expression
- expression of the hepatocyte marker Bhmt ([5]; R24h): almost no expression
- induction of early hepatocyte markers Prox1 and HNF4α in BEC-derived LPCs [6]: did not affect
- size of regenerating livers [6]: significantly reduced the size of regenerating livers

Molecule: CC(=O)Nc1ccc(O)cc1 [APAP, acetyl-para-aminophenol]
- liver damage (centrilobular necrosis; 200 mg/Kg): mild
- liver damage (centrilobular necrosis; 400 mg/kg): severe damage and ultimately death
- necrosis (H&E), males vs females ([7]; 400 mg/kg): more extensive in male livers and progressively increased overtime, whereas female livers fully recovered by 48 hours
- serum bilirubin, males vs females ([7]; 400 mg/kg): persisted for 96 hours in males but decreased after 48 hours in females
- injury and lethality ([7]; 400 mg/kg intraperitoneally, both sexes): induces injury in both sexes without lethality up to 96 hours
- serum ALT levels, males vs females ([7]; 400 mg/kg, time points post-24 hours): consistently higher in males than in females

Molecule: CN(C)c1ccc(/C=C2\C(=O)Nc3ccccc32)cc1 [SU4312]
- size of regenerating livers [5]: significantly reduced the size of regenerating livers
- induction of early hepatocyte markers Prox1 and HNF4α in BEC-derived LPCs [6]: did not affect
- size of regenerating livers [6]: significantly reduced the size of regenerating livers

B1: cGH: rat recombinant GH given by continuous infusion via osmotic minipump (protein, UniProt P01244 27-216, looked up)
Somatotropin: FPAMPLSSLFANAVLRAQHLHQLAADTYKEFERAYIPEGQRYSIQNAQAAFCFSETIPAPTGKEEAQQRTDMELLRFSLLLIQSWLGPVQFLSRIFTNSLMFGTSDRVYEKLKDLEEGIQALMQELEDGSPRIGQILKQTYDKFDANMRSDDALLKNYGLLSCFKKDLHKAETYLRVMKCRRFAESSCAF
- liver sex-biased genes whose expression is feminized (liver sex-biased genes): 92%
